Patent publication US20260028348A1, “MODULATORS OF TNF-ALPHA ACTIVITY” (Forward Therapeutics, Inc., priority 2023, published 2026)

Tested on: HEK Blue™ TNFα reporter cells
Assay: TNF-α Induced HEK Blue Cellular Assay
Type: cell-based
Details: TNF-α stimulated HEK Blue TNFα reporter cells, 24 hrs, secreted alkaline phosphatase (QUANTI-Blue, 620 nm)
Experimental: Test articles were diluted in DMSO and serially diluted into 384 well assay plate (Corning 3765), at final concentrations ranging from […] to 0.5 nM. HEK Blue™ TNFα reporter cells were added at a final density of 10,000 cell per well in assay media [DMEM (Gibco, cat #21063-029), 10% fetal bovine serum (ExcelBio, cat #FND500), 1% Penicillin-Streptomycin (Solarbio, cat #P1400-100]. TNF-α (R&D 210-TA-020/CF) was then added to the assay plate at a final concentration of […]. This plate was then incubated for 24 hrs at 37° C. and 5% CO2. Secreted alkaline phosphatase expression was then measured using QUANTI-Blue™(Invivogen), according to manufacturer instructions and read on an Envision microplate reader at 620 nm.
Inhibition data for test compound over a range of concentration was plotted as percentage inhibition of the test compound (100%=maximum inhibition). IC50 values were determined after correcting for background [(sample read-mean of low control)/(mean of high control-mean of low control)] whereby the low control is DMSO without stimulation and high control is DMSO with stimulation. The IC50 is defined as the concentration of test compound which produces […] and was quantified using the 4 parameter logistic equation to fit the data.

Row | Compound | IC50 [µM]
1 | CN1Cc2cc(-c3ccc4nc5n(c4c3)[C@@H]3C[C@H]5N(C)C(=O)c4cccc(OC(F)F)c43)cnc2C1=O [Example 20, (1R,11R)-18-(difluoromethoxy)-12-methyl-5-{6-methyl-7-oxo-5H-pyrrolo[3,4-b]pyridin-3-yl}-2,9,12-triazapentacyclo[9.8.1.0^{2,10}.0^{3,8}.0^{14,19}]icosa-3(8),4,6,9,14(19),15,17-heptaen-13-one] | < 0.1
2 | CN1C(=O)c2cccc(OC(F)F)c2[C@H]2C[C@@H]1c1nc3ccc(-c4ccc5c(c4)CC[C@@H]5O)cc3n12 [Example 15, (1R,11R)-18-(difluoromethoxy)-5-[(1S)-1-hydroxy-2,3-dihydro-1H-inden-5-yl]-12-methyl-2,9,12-triazapentacyclo[9.8.1.0^{2,10}.0^{3,8}.0^{14,19}]icosa-3(8),4,6,9,14(19),15,17-heptaen-13-one] | < 0.1
3 | CN1C(=O)c2cccc(OC(F)F)c2[C@H]2C[C@@H]1c1nc3ccc(-c4cnc5c(c4)CC[C@@]5(C)O)cc3n12 (single isomer, unassigned) [Example 11] | < 0.1
4 | CN1C(=O)c2cccc(OC(F)F)c2[C@H]2C[C@@H]1c1nc3ccc(-c4cnc5c(c4)CC[C@]5(N)CO)cc3n12 (single isomer, unassigned) [Example 36] | < 0.1
5 | [2H]C([2H])([2H])N1C(=O)c2cccc(OC(F)F)c2[C@H]2C[C@@H]1c1nc3ccc(-c4cnc5c(c4)OC[C@@]5(C)O)c(F)c3n12 (single isomer, unassigned) [Example 53] | < 0.1
6 | [2H]C([2H])([2H])N1C(=O)c2cccc(OC(F)F)c2[C@H]2C[C@@H]1c1nc3ccc(-c4cnc5c(c4)CC[C@@]5(C)O)cc3n12 (single isomer, unassigned) [Example 33] | < 0.1
7 | CN1C(=O)c2cccc(OC(F)F)c2[C@H]2C[C@@H]1c1nc3ccc(-c4cc(F)c5c(c4)CC[C@@H]5N)cc3n12 [Example 7, (1R,11R)-5-[(1S)-1-amino-7-fluoro-2,3-dihydro-1H-inden-5-yl]-18-(difluoromethoxy)-12-methyl-2,9,12-triazapentacyclo[9.8.1.0^{2,10}.0^{3,8}.0^{14,19}]icosa-3(8),4,6,9,14(19),15,17-heptaen-13-one] | < 0.1
8 | [2H]C([2H])([2H])N1C(=O)c2cccc(OC(F)F)c2[C@H]2C[C@@H]1c1nc3ccc(-c4cnc5c(c4)NC(=O)[C@@]5(C)O)cc3n12 (single isomer, unassigned) [Example 43] | < 0.1
9 | [2H]C([2H])([2H])N1C(=O)c2cccc(OC(F)F)c2[C@H]2C[C@@H]1c1nc3ccc(-c4cnc5c(c4)OCC5(C)O)cc3n12 (stereo partly drawn) [Example 44, (7R,14R)-1-(difluoromethoxy)-11-(3-hydroxy-3-methyl-2,3-dihydrofuro[3,2-b]pyridin-6-yl)-6-(methyl-d3)-6,7-dihydro-7,14-methanobenzo[f]benzo[4,5]imidazo[1,2-a][1,4]diazocin-5(14H)-one] | < 0.1
10 | [2H]C([2H])([2H])N1C(=O)c2cccc(OC(F)F)c2[C@H]2C[C@@H]1c1nc3ccc(-c4cnc5c(c4)OC[C@@]5(C)N)cc3n12 (single isomer, unassigned) [Example 56] | < 0.1
11 | [2H]C([2H])([2H])N1C(=O)c2cccc(OC(F)F)c2[C@H]2C[C@@H]1c1nc3ccc(-c4cnc5c(c4)COC[C@]5(O)CC)cc3n12 (single isomer, unassigned) [Example 41] | 10 to 30
12 | [2H]C([2H])([2H])N1C(=O)c2cccc(OC(F)F)c2[C@H]2C[C@@H]1c1nc3ccc(-c4cnc5c(c4)OC[C@]5(C)O)c(F)c3n12 (single isomer, unassigned) [Example 54] | < 0.1
13 | CN1C(=O)c2cccc(OC(F)F)c2[C@H]2C[C@@H]1c1nc3ccc(-c4cnc5c(c4)CC[C@@]5(N)CO)cc3n12 (single isomer, unassigned) [Example 37] | < 0.1
14 | CN1C(=O)c2cccc(OC(F)F)c2[C@H]2C[C@@H]1c1nc3ccc(-c4ccc5c(c4)OC[C@@H]5N)cc3n12 [Example 5, (1R,11R)-5-[(3R)-3-amino-2,3-dihydro-1-benzofuran-6-yl]-18-(difluoromethoxy)-12-methyl-2,9,12-triazapentacyclo[9.8.1.0^{2,10}.0^{3,8}.0^{14,19}]icosa-3(8),4,6,9,14(19),15,17-heptaen-13-one] | < 0.1
15 | [2H]C([2H])([2H])N1C(=O)c2cccc(OC(F)F)c2[C@H]2C[C@@H]1c1nc3ccc(-c4cnc5c(c4)OC[C@@]5(C)O)cc3n12 (single isomer, unassigned) [Example 47] | < 0.1
16 | [2H]C([2H])([2H])N1C(=O)c2cccc(OC(F)F)c2[C@H]2C[C@@H]1c1nc3ccc(-c4cnc5c(c4)COC[C@@]5(O)CC)cc3n12 (single isomer, unassigned) [Example 40] | 10 to 30

Row | Compound | IC50 [µM]
17 | [2H]C([2H])([2H])N1C(=O)c2cccc(OC(F)F)c2[C@H]2C[C@@H]1c1nc3ccc(-c4cnc5c(c4)OCC[C@@]5(C)O)nc3n12 (single isomer, unassigned) [Example 69] | 10 to 30
18 | CN1C(=O)c2cccc(OC(F)F)c2[C@H]2C[C@@H]1c1nc3ccc(-c4cnc5c(c4)CCC5=O)cc3n12 [Example 8, (1R,11R)-18-(difluoromethoxy)-12-methyl-5-{7-oxo-5H,6H-cyclopenta[b]pyridin-3-yl}-2,9,12-triazapentacyclo[9.8.1.0^{2,10}.0^{3,8}.0^{14,19}]icosa-3(8),4,6,9,14(19),15,17-heptaen-13-one] | < 0.1
19 | [2H]C([2H])([2H])N1C(=O)c2cccc(OC(F)F)c2[C@H]2C[C@@H]1c1nc3ccc(-c4cnc5c(c4)COCC5(C)N)cc3n12 (stereo partly drawn) [Example 45, (7R,14R)-11-(8-amino-8-methyl-7,8-dihydro-5H-pyrano[4,3-b]pyridin-3-yl)-1-(difluoromethoxy)-6-(methyl-d3)-6,7-dihydro-7,14-methanobenzo[f]benzo[4,5]imidazo[1,2-a][1,4]diazocin-5(14H)-one] | 0.1 to 1
20 | [2H]C([2H])([2H])N1C(=O)c2cccc(OC(F)F)c2[C@H]2C[C@@H]1c1nc3cc(F)c(-c4cnc5c(c4)OC[C@@]5(C)N)cc3n12 (single isomer, unassigned) [Example 61] | < 0.1
21 | CN1C(=O)c2cccc(OC(F)F)c2[C@H]2C[C@@H]1c1nc3ccc(-c4ccc5c(c4)NC(=O)C5(C)O)cc3n12 (stereo partly drawn) [Example 21, (1R,11R)-18-(difluoromethoxy)-5-(3-hydroxy-3-methyl-2-oxo-1H-indol-6-yl)-12-methyl-2,9,12-triazapentacyclo[9.8.1.0^{2,10}.0^{3,8}.0^{14,19}]icosa-3(8),4,6,9,14(19),15,17-heptaen-13-one] | < 0.1
22 | [2H]C([2H])([2H])N1C(=O)c2cccc(OC(F)F)c2[C@H]2C[C@@H]1c1nc3ccc(-c4cnc5c(c4)CC[C@@]5(C)O)nc3n12 (single isomer, unassigned) [Example 67] | 10 to 30
23 | [2H]C([2H])([2H])N1C(=O)c2cccc(OC(F)F)c2[C@H]2C[C@@H]1c1nc3ccc(-c4cnc5c(c4)CC[C@]5(C)O)c(F)c3n12 (single isomer, unassigned) [Example 50] | < 0.1
24 | [2H]C([2H])([2H])N1C(=O)c2cccc(OC(F)F)c2[C@H]2C[C@@H]1c1nc3ccc(-c4cnc5c(c4)CC[C@]5(C)N)cc3n12 (single isomer, unassigned) [Example 28] | < 0.1
25 | [2H]C([2H])([2H])N1C(=O)c2cccc(OC(F)F)c2[C@H]2C[C@@H]1c1nc3ccc(-c4cnc5c(c4)COC[C@@]5(C)O)cc3n12 (single isomer, unassigned) [Example 39] | 10 to 30
26 | [2H]C([2H])([2H])N1C(=O)c2cccc(OC(F)F)c2[C@H]2C[C@@H]1c1nc3ccc(-c4cnc5c(c4)NC(=O)[C@]5(C)O)cc3n12 (single isomer, unassigned) [Example 42] | < 0.1
27 | N[C@H]1COc2cc(-c3ccc4nc5n(c4c3)[C@@H]3C[C@H]5N(C4CC4)C(=O)c4cccc(OC(F)F)c43)ccc21 [Example 14, (1R,11R)-5-[(3R)-3-amino-2,3-dihydro-1-benzofuran-6-yl]-12-cyclopropyl-18-(difluoromethoxy)-2,9,12-triazapentacyclo[9.8.1.0^{2,10}.0^{3,8}.0^{14,19}]icosa-3(8),4,6,9,14(19),15,17-heptaen-13-one] | < 0.1
28 | N[C@H]1COc2cc(-c3ccc4nc5n(c4c3)[C@@H]3C[C@H]5NC(=O)c4cccc(OC(F)F)c43)ccc21 [Example 4, (1R,11R)-5-[(3R)-3-amino-2,3-dihydro-1-benzofuran-6-yl]-18-(difluoromethoxy)-2,9,12-triazapentacyclo[9.8.1.0^{2,10}.0^{3,8}.0^{14,19}]icosa-3(8),4,6,9,14(19),15,17-heptaen-13-one] | < 0.1
29 | [2H]C([2H])([2H])N1C(=O)c2cccc(OC(F)F)c2[C@H]2C[C@@H]1c1nc3ccc(-c4cnc5c(c4)OC[C@]5(C)N)nc3n12 (single isomer, unassigned) [Example 60] | 0.1 to 1
30 | [2H]C([2H])([2H])N1C(=O)c2cccc(OC(F)F)c2[C@H]2C[C@@H]1c1nc3ccc(-c4cnc5c(c4)OC[C@]5(C)O)nc3n12 (single isomer, unassigned) [Example 64] | 0.1 to 1
31 | CN1C(=O)c2cccc(OC(F)F)c2[C@H]2C[C@@H]1c1nc3ccc(-c4ccc5c(c4)CC[C@@H]5N)cc3n12 [Example 2, (1R,11R)-5-[(1S)-1-amino-2,3-dihydro-1H-inden-5-yl]-18-(difluoromethoxy)-12-methyl-2,9,12-triazapentacyclo[9.8.1.0^{2,10}.0^{3,8}.0^{14,19}]icosa-3(8),4,6,9,14(19),15,17-heptaen-13-one] | < 0.1
